Data from patent US11384075B2, “Quinolinone compounds” (Janssen Pharmaceutica NV, priority 2017, dated 2022).
Where two headings read alike, the source gives them in different places.

Tests used:
[1] = target: T1, human FGFR3 wild type enzyme (cytoplasmic domain) (Homo sapiens, UniProt P22607); experiment: FGFR3 wild type mobility shift assay (enzymatic assay); type: biochemical; details: 75 μM ATP, 50 minutes at 30° C., Caliper EZ reader II
T1 construct: human FGFR3 wild type enzyme (cytoplasmic domain, from Carna Biosciences); purchased Carna Biosciences
Method: FGFR3 Wild Type Mobility Shift Assay (Enzymatic Assay)
(§1) In a final reaction volume of 25 μL, 0.04 ng/μL human FGFR3 wild type enzyme (cytoplasmic domain, from Carna Biosciences) was incubated with 75 μM ATP, 1 μM FL-peptide 30 substrate and 250 nL of testing compound (1% DMSO final) in assay buffer (100 mM HEPES pH 7.4, 10 mM MgCl2, 0.003% Brij35, 1 mM DTT). After incubation for 50 minutes at 30° C. the reaction was stopped with 10 μL of 0.5M EDTA pH 8.0, and then 25 μL of reaction mixture was transferred to reading plate and measured on Caliper EZ reader II. The substrate-product conversion rate was used as raw data for normalization and concentration-response curve (10 dose points with 4× serial dilution, starting with 10 μM) was plotted using Prism to calculate IC50 (M), pIC50 (−log IC50) and HillSlope value.

[2] = target: T2, human FGFR3 V555M enzyme (cytoplasmic domain carrying V555M mutation) (Homo sapiens, UniProt P22607, V555M); experiment: FGFR3 V555M mobility shift assay (enzymatic assay); type: biochemical; details: 30 μM ATP, 45 minutes at 30° C., Caliper EZ reader II
T2 construct: human FGFR3 V555M enzyme (cytoplasmic domain carrying V555M mutation, from Carna Biosciences); purchased Carna Biosciences
Method: FGFR3 V555M Mobility Shift Assay (Enzymatic Assay)
as §1, with “FGFR3 V555M” for “FGFR3 wild type”, “(cytoplasmic domain carrying V555M mutation,” for “(cytoplasmic domain,”, “with 30” for “with 75”, “for 45” for “for 50”

[3] = tested on: NIH/3T3 cells transfected with the same control vector; experiment: NIH/3T3 mock cell proliferation assay (counter assay, general toxicity); type: cell-based; details: 72-hr incubation, CellTiter Glo, starting with 30 μM, counter assay for general toxicity, read-out: NIH/3T3 MOCK CTG (IC50)
Method: NIH/3T3 Mock Cell Proliferation Assay
(§2) In day 1, 90 μL of cell suspension (NIH/3T3 cells transfected with the same control vector as in the above two proliferation assays) (total 30,000 cells per well in growth medium (DMEM containing 1% Glutamax, 10% FBS and 1% Pen/Strep)) was seeded in a 96-well plate and then incubated overnight at 37° C. and 5% CO2. In day 2, 10 μL of growth medium containing 10-fold stock solution of testing compound was added into cell cultures (9 dose points with 3× serial dilution, starting with 30 μM, 0.3% DMSO final). After 72-hr incubation at 37° C. and 5% CO2, in day 5 a volume of 50 μL CellTiter Glo (CTG) reagent was added into cell-containing 96-well plate and the plate was incubated at room temperature for 10 minutes before RLUs (relative light unit) were measured on a microplate reader with luminescence detection module. The RLU value was normalized to survival % and concentration-response curve was plotted using Prism to calculate IC50 (M), pIC50 (−log IC50) and HillSlope value.

[4] = target: T3, NIH/3T3 cells overexpressing FGFR3 WT-TACC3 fusion protein (Homo sapiens, UniProt P22607); experiment: NIH/3T3 FGFR3 WT-TACC3 cell proliferation assay; type: cell-based; details: 72-hr incubation, CellTiter Glo, starting with 10 μM; read-out: NIH/3T3 FGFR3 WT-TACC3 CTG (IC50)
T3 construct: NIH/3T3 FGFR3 WT-TACC3 CTG (IC50); other: 72-hr incubation, CellTiter Glo, starting with 10 μM; fused on or other part: Q9Y6A5 (Transforming acidic coiled-coil-containing protein 3)
Method: NIH/3T3 FGFR3 WT-TACC3 Cell Proliferation Assay
as §2, with “cells overexpressing FGFR3 WT-TACC3 fusion protein)” for “cells transfected with the same control vector as in the above two proliferation assays)”, “with 4×” for “with 3×”, “with 10” for “with 30”, “μM, 0.1%” for “μM, 0.3%”

[5] = target: T4, NIH/3T3 cells overexpressing FGFR3 V555M-TACC3 fusion protein (Homo sapiens, UniProt P22607, V555M, cells depend on it); experiment: NIH/3T3 FGFR3 V555M-TACC3 cell proliferation assay; type: cell-based; details: 72-hr incubation, CellTiter Glo, starting with 10 μM; read-out: NIH/3T3 FGFR3 V555M-TACC3 CTG (IC50)
T4 construct: NIH/3T3 FGFR3 V555M-TACC3 CTG (IC50); other: 72-hr incubation, CellTiter Glo, starting with 10 μM; fused on or other part: Q9Y6A5 (Transforming acidic coiled-coil-containing protein 3)
Method: NIH/3T3 FGFR3 V555M-TACC3 Cell Proliferation Assay
as §2, with “cells overexpressing FGFR3 V555M-TACC3 fusion protein)” for “cells transfected with the same control vector as in the above two proliferation assays)”, “with 4×” for “with 3×”, “with 10” for “with 30”, “μM, 0.1%” for “μM, 0.3%”

T2 sequence (P22607 397-806 V555M limits assumed): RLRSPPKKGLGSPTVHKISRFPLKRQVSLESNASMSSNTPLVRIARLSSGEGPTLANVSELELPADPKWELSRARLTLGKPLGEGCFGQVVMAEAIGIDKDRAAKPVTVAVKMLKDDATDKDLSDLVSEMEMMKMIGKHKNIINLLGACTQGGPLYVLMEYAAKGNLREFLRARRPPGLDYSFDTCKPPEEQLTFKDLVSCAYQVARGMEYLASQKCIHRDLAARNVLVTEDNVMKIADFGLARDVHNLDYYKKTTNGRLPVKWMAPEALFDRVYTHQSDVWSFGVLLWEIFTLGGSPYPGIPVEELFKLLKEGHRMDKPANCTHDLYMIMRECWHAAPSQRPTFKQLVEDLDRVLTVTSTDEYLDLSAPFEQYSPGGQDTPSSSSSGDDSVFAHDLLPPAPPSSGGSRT
T4 sequence (P22607 whole entry V555M, the tested form may be a part): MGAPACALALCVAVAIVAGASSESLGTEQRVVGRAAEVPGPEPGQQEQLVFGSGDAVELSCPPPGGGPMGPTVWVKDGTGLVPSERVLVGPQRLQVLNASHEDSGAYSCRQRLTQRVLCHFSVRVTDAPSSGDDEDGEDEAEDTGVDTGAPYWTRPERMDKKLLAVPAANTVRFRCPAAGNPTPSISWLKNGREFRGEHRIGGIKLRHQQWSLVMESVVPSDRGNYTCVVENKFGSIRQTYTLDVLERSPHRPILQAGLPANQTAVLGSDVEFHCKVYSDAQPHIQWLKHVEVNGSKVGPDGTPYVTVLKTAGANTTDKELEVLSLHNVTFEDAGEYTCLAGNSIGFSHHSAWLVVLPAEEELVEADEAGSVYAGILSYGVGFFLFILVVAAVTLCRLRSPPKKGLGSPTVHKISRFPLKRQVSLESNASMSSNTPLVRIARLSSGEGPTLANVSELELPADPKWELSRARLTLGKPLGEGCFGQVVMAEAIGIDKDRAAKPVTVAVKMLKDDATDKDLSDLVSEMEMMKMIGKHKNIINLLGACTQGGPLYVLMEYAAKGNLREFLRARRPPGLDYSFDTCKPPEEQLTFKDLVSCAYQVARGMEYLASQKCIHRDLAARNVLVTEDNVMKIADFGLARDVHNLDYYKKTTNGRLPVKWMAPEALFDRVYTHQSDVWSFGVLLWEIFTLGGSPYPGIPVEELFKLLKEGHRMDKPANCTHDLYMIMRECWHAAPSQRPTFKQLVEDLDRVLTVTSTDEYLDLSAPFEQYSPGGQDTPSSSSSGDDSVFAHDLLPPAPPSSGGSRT
T1 sequence (P22607 397-806 limits assumed): as the sequence (P22607 397-806 V555M limits assumed) above, with M159V counted along it
T3 sequence (P22607 whole entry, change not shown, the tested form may be a part): as the sequence (P22607 whole entry V555M, the tested form may be a part) above, with M555V counted along it

Structure (SMILES) | IC50 [1] [nM] | IC50 [2] [nM] | GI50 [4] [nM] | GI50 [5] [nM] | IC50 ([3]; Mus musculus, NIH3T3, 72 h) [nM] | IC50 [3] [nM]
Cc1ccnc(C(C)Nc2c(-c3nc4ccc(N5CCOCC5)cc4[nH]3)c(=O)[nH]c3ccccc23)n1 (single isomer, unassigned) [Compound 34a, (S*)-4-((1-(4-methylpyrimidin-2-yl)ethyl)amino)-3-(6-morpholino-1H-benzo[d]imidazol-2-yl)quinolin-2(1H)-one] | 9 | 1.59 | 43.1 | 70.4 | 1320 | 
C[C@H](Nc1c(-c2nc3cc(C(F)(F)F)c(N4CCN(C)CC4)cc3[nH]2)c(=O)[nH]c2ccccc12)c1ccccn1 [Compound 14, (S)-3-(6-(4-methylpiperazin-1-yl)-5-(trifluoromethyl)-1H-benzo[d]imidazol-2-yl)-4-((1-(pyridin-2-yl)ethyl)amino)quinolin-2(1H)-one] | 3.38 | 2.15 | 52.2 | 141 | 3010 | 
C[C@H](Nc1c(-c2nc3ccc(N4CCOC(C(=O)O)C4)cc3[nH]2)c(=O)[nH]c2ccccc12)c1ccccn1 (mixture of isomers) [Compound 60, (Rac)-4-(2-(2-oxo-4-(((S)-1-(pyridin-2-yl)ethyl)amino)-1,2-dihydroquinolin-3-yl)-1H-benzo[d]imidazol-6-yl)morpholine-2-carboxylic acid] | 1.18 | 0.603 | 1280 | 1620 | > 30000 | 
C[C@H](Nc1c(-c2nc3cc(C(F)(F)F)c(NC4CCN(C)CC4)cc3[nH]2)c(=O)[nH]c2ccccc12)c1ccccn1 [Compound 18, (S)-3-(6-((1-methylpiperidin-4-yl)amino)-5-(trifluoromethyl)-1H-benzo[d]imidazol-2-yl)-4-((1-(pyridin-2-yl)ethyl)amino)quinolin-2(1H)-one] | 1.35 | 1.35 | 56.8 | 87.8 | 733 | 
COC(=O)C1CN(c2ccc3nc(-c4c(N[C@@H](C)c5ccccn5)c5ccccc5[nH]c4=O)[nH]c3c2)CCO1 (single isomer, unassigned) [Compound 62, (R*)-methyl 4-(2-(2-oxo-4-(((S)-1-(pyridin-2-yl)ethyl)amino)-1,2-dihydroquinolin-3-yl)-1H-benzo[d]imidazol-6-yl)morpholine-2-carboxylate] | 2.91 | 1.21 | 389 | 451 |  | 12700
Cc1c(N2CCOCC2)ccc2nc(-c3c(N[C@@H](C)c4ncccn4)c4ccccc4[nH]c3=O)[nH]c12 [Compound 47, (S)-3-(7-methyl-6-morpholino-1H-benzo[d]imidazol-2-yl)-4-((1-(pyrimidin-2-yl)-ethyl)amino)quinolin-2(1H)-one] | 0.67 | 0.27 | 16 | 12.3 | 547 | 
C[C@H](Nc1c(-c2nc3ccc(N4CCOCC4)cc3[nH]2)c(=O)[nH]c2ccc(F)cc12)c1ccccn1 [Compound 17, (S)-6-fluoro-3-(6-morpholino-1H-benzo[d]imidazol-2-yl)-4-((1-(pyridin-2-yl)ethyl)-amino)quinolin-2(1H)-one] | 4.89 | 0.997 | 58.7 | 114 | 661 | 
C[C@H](Nc1c(-c2nc3ccc(N4CCN(C)C(=O)C4)cc3[nH]2)c(=O)[nH]c2ccccc12)c1ccccn1 [Compound 15, (S)-3-(6-(4-methyl-3-oxopiperazin-1-yl)-1H-benzo[d]imidazol-2-yl)-4-((1-(pyridin-2-yl)ethyl)amino)quinolin-2(1H)-one] | 0.851 | 0.351 | 12.4 | 24.9 | 1190 | 

Stronger by IC50 [1], values ahead:

IC50 [1] [nM] | IC50 [2] [nM] | GI50 [4] [nM] | GI50 [5] [nM] | Structure (SMILES) | IC50 ([3]; Mus musculus, NIH3T3, 72 h) [nM] | IC50 [3] [nM]
0.317 | 0.178 | 2.22 | 4.3 | CC(Nc1c(-c2nc3ccc(N4CCO[C@@H](C)C4)cc3[nH]2)c(=O)[nH]c2ccccc12)c1ncccn1 (single isomer, unassigned) [Compound 26a, 3-(6-((S)-2-methylmorpholino)-1H-benzo[d]imidazol-2-yl)-4-(((S*)-1-(pyrimidin-2-yl)-ethyl)amino)quinolin-2(1H)-one] | 2580 | 
0.47 | 0.186 | 9.9 | 8.64 | CC(Nc1c(-c2nc3ccc(-c4cnn(C)c4)cc3[nH]2)c(=O)[nH]c2ccccc12)c1ncccn1 (single isomer, unassigned) [Compound 53a, (S*)-3-(6-(1-methyl-1H-pyrazol-4-yl)-1H-benzo[d]imidazol-2-yl)-4-((1-(pyrimidin-2-yl)ethyl)amino)quinolin-2(1H)-one] | 1690 | 
0.552 | 0.302 | 5.49 | 8.35 | C[C@H](Nc1c(-c2nc3ccc(N4CCCCC4)cc3[nH]2)c(=O)[nH]c2ccccc12)c1ncccn1 (single isomer, unassigned) [Compound 28a, (S*)-3-(6-(piperidin-1l-yl)-1H-benzo[d]imidazol-2-yl)-4-((1-(pyrimidin-2-yl)ethyl)-amino)quinolin-2(1H)-one] | 7220 | 
